This note sets out measurements from US20090054240A1, “Heteroaroyl-substituted Alanines” (BASF SE, priority 2006, published 2009).

In one series the test system is pig weed. As to the kind of experiment: greenhouse post-emergence herbicidal test. In kind it is in vivo, Amaranthus retroflexus. To be noted: application rate 1.0 kg/ha a.s. The text has this: (§1) The seeds of the test plants were sown separately for each species. For the post-emergence treatment, the test plants were first grown to a height of 3 to 15 cm, depending on the plant habit, and only then treated with the active ingredients which had been suspended or emulsified in water. For this purpose, the test plants were either sown directly and grown in the same containers, or they were first grown separately as seedlings and transplanted into the test containers a few days prior to treatment. The rate of application for the post-emergence treatment was 1.0 kg/ha of a.s. (active substance). Depending on the species, the plants were kept at 10-25° C. or 20-35° C. The test period extended over 2 to 4 weeks. During this time, the plants were tended, and their response to the individual treatments was evaluated. Evaluation was carried out using a scale from 0 to 100. 100 means no emergence of the plants, or complete destruction of at least the aerial parts, and 0 means no damage, or normal course of growth. The plants used in the greenhouse experiments belonged to the following species: [table]

The next series concerns lambsquarters. Kind of series: greenhouse post-emergence herbicidal test. In kind it is in vivo, Chenopodium album. The following applies: application rate 1.0 kg/ha a.s.
Source text: as §1

The subject of a further series is green foxtail. Kind of series: greenhouse post-emergence herbicidal test. The following applies: application rate 1.0 kg/ha a.s. In kind it is in vivo, Setaria viridis.
Source text: as §1

SMILES strings stand for the structures.

Turning to `CNC(=O)[C@H](CN)NC(=O)c1cn(C)nc1C(F)(F)F` [Compound 3.6, N-[(1S)-1-(Aminomethyl)-2-(methylamino)-2-oxoethyl]-1-methyl-3-(trifluoromethyl)-1H-pyrazole-4-carboxamide], the melting point (as a rule, the temperature of the solid-liquid transition) worked out at 127 °C.
The compound `CNC(=O)[C@H](CNC(=O)OC)NC(=O)c1cn(C)nc1C(F)(F)F` [Compound 3.10, O-Methyl N-[(2S)-3-(methylamino)-2-({[1-methyl-3-(trifluoromethyl)-1H-pyrazol-4-yl]carbonyl}amino)-3-oxopropyl]carbamate] displayed a melting point of 205 °C. The “post-emergence action against pig weed” value in the series with pig weed is listed as “very good”. Besides, in the series on lambsquarters, the “post-emergence action against lambsquarters” value is recorded as “very good”. Besides, the “post-emergence action against green foxtail” value in the series on green foxtail is “very good”.
Consider `CNC(=O)[C@H](CNC(=O)OC(C)(C)C)NC(=O)c1cn(C)nc1C(F)(F)F` [Compound 3.11, O-tert-Butyl N-[(2S)-3-(methylamino)-2-({[1-methyl-3-(trifluoromethyl)-1H-pyrazol-4-yl]carbonyl}amino)-3-oxopropyl]carbamate], for which the melting point turned out to be 78 °C.
